In brackets after ≈: the same amount, converted by molar mass. Residues, ends and D or L forms follow the SMILES beside them. No end group written: not given here.
Legend:
[1] = system: Pseudomonas aeruginosa PAO1 strain H103; format: cell-based; conditions: for MIC P. aerug: PAO1; for antimicrobial activity against P. aeruginosa PAO1 (in words): laboratory strain P. aeruginosa PAO1
Outline: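 Modified broth microdilution MIC in Mueller Hinton medium, peptides diluted in 0.01% acetic acid/0.2% BSA, polypropylene plates. Inoculum 2-7×10^5 CFU/ml, overnight at 37 °C; MIC is the lowest concentration with no visible growth.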

[2] = system: Enterococcus faecalis ATCC29212; format: cell-based; conditions: ATCC29212
Outline: (§1)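 MIC read as the concentration giving no visible growth after overnight incubation at 37° C. Peptides were diluted in 0.01% acetic acid containing 0.2% bovine serum albumin and tested in Mueller Hinton broth against 2-7×10^5 CFU/ml inoculum in polypropylene microtitre plates.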

Escherichia coli UB1005 = format: cell-based; conditions: indolicidin substitution variants (Table 4)
Outline: as §1

[3] = system: Staphylococcus aureus ATCC25923; format: cell-based; conditions: ATCC25923
Outline: as §1

[4] = system: clinical isolate of Staphylococcus epidermidis; format: cell-based; conditions: clinical isolate of
Outline: as §1

[5] = system: lab isolate of Candida albicans; format: cell-based; conditions: lab isolate of
Outline: as §1

[6] = system: wild-type Salmonella enterica ssp. typhimurium; format: cell-based
Outline: as §1

[7] = system: LPS-stimulated TNFα production in THP-1 cells; assay: Suppression of P. aeruginosa LPS-stimulated TNFα production (ELISA); format: cell-based, human; conditions: for ability to inhibit TNFα responses compared with indolicidin: 10 ng/ml P. aeruginosa LPS, peptides at 10, 20 and 50 μg/ml (FIG. 13)
Experimental: FIG. 12. Assessment of the ability of peptides to suppress P. aeruginosa LPS (10 ng/ml)-stimulated TNFα production in THP1 cells. Presented results are the mean values for 4 wells performed on 2 separate occasions. The x-axis number labeling is the amount of each peptide in μg/ml for the corresponding peptides.
FIG. 13. Suppression of inflammatory responses by peptides. Monocyte/macrophage-like adherent THP-1 cells were stimulated with 10 ng/ml P. aeruginosa LPS and the resulting TNFα response measured. Peptides were added at 10, 20 and 50 μg/ml. The observed TNF-release was measured by ELISA and related to the 100% value of the untreated (without peptide) cells.
Cytotoxicity and TNFα suppression assay. THP1 cells were cultured in RPMI 1640 medium (supplemented with 10% (v/v) FCS, 1% L-glutamine, and […] sodium pyruvate) in E-toxa-clean (Sigma-Aldrich, Oakville, Ontario, Canada)-washed, endotoxin-free bottle. THP1 cells were counted and 250 μl per well of […] were transferred into a 96 well tissue cultured treated polystyrene microtiterplate (Beckton Dickinson, Franklin Lakes, USA). In addition PMA were added (1.3 nM) and the cells were incubated for three days. After three days the medium were exchanged and Pseudomonas aeruginosa LPS and the peptides were added. The incubation time was four hours and the supernatant was frozen at −20° C. The cells were stained with Tryphan Blue for 2 minutes and washed with PBS two times. The viability of the cells was determined by counting the stained cells over the unstained. The supernatent was used to measure the TNFα production by an ELISA (eBioscience, San Diego, USA) following the manufactures protocol.
LPS from P. aeruginosa strain H103 was highly purified free of proteins and lipids using the Darveau-Hancock method. Briefly, P. aeruginosa was grown overnight in LB broth at 37° C. Cells were collected and washed and the isolated LPS pellets were extracted with a 2:1 chloroform:methanol solution to remove contaminating lipids. Purified LPS samples were quantitated using an assay for the specific sugar 2-keto-3-deoxyoctosonic acid (KDO assay) and then resuspended in endotoxin-free water (Sigma-Aldrich).
Human monocytic cells, THP-1, were obtained from American type culture collection, ATCC® (TIB-202) and were grown in suspension in RPMI-1640 media (Gibco®, Invitrogen™ Life technologies, Burlington, ON), supplemented with 10% (v/v) heat inactivated fetal bovine serum (FBS), 2 mM L-glutamine and 1 mM sodium pyruvate (all from Invitrogen Life Technologies). Cultures were maintained at 37° C. in a humidified 5% (v/v) CO2 incubator up to a maximum of six passages. THP-1 cells at a density of 1×10^6 cells/ml were treated with 0.3 μg/ml phorbol 12-myristate 13-acetate (PMA; Sigma-Aldrich Canada, Oakville ON) for 24 hours, inducing plastic-adherent cells that were further rested in complete RPMI-1640 medium for an additional 24 hours prior to stimulation with various treatments including P. aeruginosa LPS (10 ng/ml) with or without peptides for 24 hours after which supernatants were collected and TNFα assessed by ELISA.
THP-1 cells were stimulated with LPS (10 ng/ml) with or without peptide (10 or 100 μg/ml) for 4 hours as indicated in the results section. Following incubation of the cells under various treatment regimens, the tissue culture supernatants were centrifuged at 1000×g for 5 min, then at 10,000×g for 2 min to obtain cell-free samples. Supernatants were aliquoted and then stored at −20° C. prior to assay for various cytokines. TNFα secretion was detected with a capture ELISA (eBioscience and BioSource International Inc., CA, USA respectively).

[8] = system: clinical isolates of MRSA; format: cell-based, Staphylococcus aureus
Outline: (§2)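 Modified broth microdilution in Mueller Hinton medium, peptides serially diluted in 0.01% acetic acid with 0.2% BSA in polypropylene plates. Inoculum 2-7×10^5 CFU/ml, overnight incubation at 37° C; MIC taken as lowest concentration with no visible growth.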

ESBL E. cloacae = format: cell-based, Enterobacter cloacae
Outline: as §2

[9] = system: Liverpool Epidemic Strains; format: cell-based, Pseudomonas aeruginosa
Outline: as §2

[10] = system: multidrug resistant Brazilian clinical isolates of P. aeruginosa; format: cell-based, Pseudomonas aeruginosa
Outline: as §2

[11] = system: MCP-1 release by human PBMC; assay: Chemokine induction in PBMC (capture ELISA); format: cell-based; conditions: background (204) subtracted
Outline: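 Heparinized blood from healthy volunteers; Ficoll-isolated human PBMC (7.5×10^5) treated with peptides at 20 or 100 μg/ml for 24 hours at 37° C, 5% CO2. Cell-free supernatants assayed for MCP-1 by capture ELISA.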

[12] = system: MCP-3 release by human PBMC; assay: Chemokine induction in PBMC (capture ELISA); format: cell-based; conditions: background (6) subtracted
Outline: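 Human PBMC from healthy donors (Ficoll-isolated), 7.5×10^5 cells at 0.75–1×10^6 cells/ml, treated with peptides at 20 or 100 μg/ml for 24 h at 37° C, 5% CO2. MCP-3 in cell-free supernatants measured by capture ELISA.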

[13] = system: CXCL1 (Gro-α) release by human PBMC; assay: Chemokine induction in PBMC (capture ELISA); format: cell-based; conditions: background (196) subtracted
Outline: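 Human PBMC from healthy donors' heparinised blood (Ficoll), 7.5×10^5 cells treated with 20 or 100 μg/ml peptide for 24 h at 37° C, 5% CO2. Cell-free supernatants assayed for CXCL1 by capture ELISA.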

[14] = system: ESBL E. coli clinical strain 64771; format: cell-based; conditions: ESBL clinical strain 64771
Outline: (§3)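 Broth microdilution in Mueller Hinton medium, peptides serially diluted in 0.01% acetic acid with 0.2% BSA in polypropylene plates. Inoculum 2-7×10^5 CFU/ml, incubated overnight at 37° C. MIC is the lowest concentration with no visible growth.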

[15] = system: ESBL Klebsiella pneumonia clinical strain 63575; format: cell-based
Outline: as §3

[16] = system: multidrug resistant Pseudomonas maltophilia ATCC13637; format: cell-based
Outline: as §3

Molecule: CC[C@H](C)[C@H](N)C(=O)N[C@@H](CC(C)C)C(=O)N1CCC[C@H]1C(=O)N[C@@H](Cc1c[nH]c2ccccc12)C(=O)N[C@@H](CCCCN)C(=O)N[C@@H](Cc1ccccc1)C(=O)N1CCC[C@H]1C(=O)N[C@@H](Cc1c[nH]c2ccccc12)C(=O)N[C@@H](Cc1c[nH]c2ccccc12)C(=O)N1CCC[C@H]1C(=O)N[C@@H](Cc1c[nH]c2ccccc12)C(=O)N[C@@H](CCCNC(=N)N)C(=O)N[C@@H](CCCNC(=N)N)C(N)=O [HH63, ILPWKFPWWPWRR] (H-ILPWKFPWWPWRR-NH2; N-terminus assumed)
- MIC P. aerug [1]: 62 µg/mL (≈ 33.2 µM)
- MIC E. faecalis [2]: 31 µg/mL (≈ 16.6 µM)
- MIC E. coli (Escherichia coli UB1005): 16 µg/mL (≈ 8.57 µM)
- MIC S. aureus [3]: 8 µg/mL (≈ 4.28 µM)
- MIC S. epi. [4]: 4 µg/mL (≈ 2.14 µM)
- MIC C. albicans [5]: 16 µg/mL (≈ 8.57 µM)
- MIC S. typhi [6]: 31 µg/mL (≈ 16.6 µM)
- ability to inhibit TNFα responses compared with indolicidin [7]: slightly better or equivalent than indolicidin

Molecule: CC[C@H](C)[C@H](N)C(=O)N[C@@H](CC(C)C)C(=O)N[C@@H](CCCCN)C(=O)N[C@@H](Cc1c[nH]c2ccccc12)C(=O)N[C@@H](CCCCN)C(=O)N[C@@H](Cc1c[nH]c2ccccc12)C(=O)N1CCC[C@H]1C(=O)N[C@@H](Cc1c[nH]c2ccccc12)C(=O)N[C@@H](Cc1c[nH]c2ccccc12)C(=O)N1CCC[C@H]1C(=O)N[C@@H](Cc1c[nH]c2ccccc12)C(=O)N[C@@H](CCCNC(=N)N)C(=O)N[C@@H](CCCNC(=N)N)C(N)=O [HH111, ILKWKWPWWPWRR]
- MIC P. aerug [1]: 16 µg/mL (≈ 8.26 µM)
- MIC E. faecalis [2]: 31 µg/mL (≈ 16 µM)
- MIC E. coli (Escherichia coli UB1005): 8 µg/mL (≈ 4.13 µM)
- MIC S. aureus [3]: 8 µg/mL (≈ 4.13 µM)
- MIC S. epi. [4]: 4 µg/mL (≈ 2.06 µM)
- MIC C. albicans [5]: 8 µg/mL (≈ 4.13 µM)
- MIC S. typhi [6]: 31 µg/mL (≈ 16 µM)
- ability to inhibit TNFα responses compared with indolicidin [7]: slightly better or equivalent than indolicidin

Molecule: CC[C@H](C)[C@H](NC(=O)[C@H](C)N)C(=O)N[C@@H](CCCNC(=N)N)C(=O)N[C@@H](CCCNC(=N)N)C(=O)N[C@@H](Cc1c[nH]c2ccccc12)C(=O)N[C@@H](CCCNC(=N)N)C(=O)N[C@H](C(=O)N[C@@H](CCCNC(=N)N)C(=O)N[C@@H](CCCCN)C(N)=O)[C@@H](C)CC [HHC142, AIRRWRIRK] (H-AIRRWRIRK-NH2; N-terminus assumed)
- antimicrobial activity against P. aeruginosa PAO1 (in words) [1]: did not return any generally active substances
- MIC [2]: >217 µM
- MIC [3]: 54 µM (≈ 67.7 µg/mL)
- MIC [8]: 54 µM (≈ 67.7 µg/mL)
- MIC (ESBL E. cloacae): 108 µM (≈ 135 µg/mL)
- MIC [9]: 217 µM (≈ 272 µg/mL)
- MIC [10]: >217 µM
- Chemokine induction MCP-1 ([11]; 20 μg/ml peptide): 67 pg/mL
- Chemokine induction MCP-1 ([11]; 100 μg/ml peptide): -16 pg/mL
- Chemokine induction MCP-3 ([12]; 20 μg/ml peptide): 1 pg/mL
- Chemokine induction MCP-3 ([12]; 100 μg/ml peptide): 0 pg/mL
- Chemokine induction Gro-α ([13]; 20 μg/ml peptide): 59 pg/mL
- Chemokine induction Gro-α ([13]; 100 μg/ml peptide): 22 pg/mL
- MIC [14]: 108 µM (≈ 135 µg/mL)
- MIC [15]: >217 µM
- MIC [16]: 108 µM (≈ 135 µg/mL)

Molecule: CC[C@H](C)[C@H](NC(=O)[C@H](CCCCN)NC(=O)[C@H](CC(C)C)NC(=O)[C@@H](NC(=O)[C@@H](N)C(C)C)C(C)C)C(=O)N[C@H](C(=O)N[C@@H](CCCNC(=N)N)C(=O)N[C@@H](CCCNC(=N)N)C(=O)N[C@@H](Cc1ccccc1)C(N)=O)C(C)C [HHC148, VVLKIVRRF] (H-VVLKIVRRF-NH2; N-terminus assumed)
- antimicrobial activity against P. aeruginosa PAO1 (in words) [1]: did not return any generally active substances
- MIC [2]: 241 µM (≈ 272 µg/mL)
- MIC [3]: 241 µM (≈ 272 µg/mL)
- MIC [8]: 241 µM (≈ 272 µg/mL)
- MIC (ESBL E. cloacae): 241 µM (≈ 272 µg/mL)
- MIC [9]: 241 µM (≈ 272 µg/mL)
- MIC [10]: >241 µM
- Chemokine induction MCP-1 ([11]; 20 μg/ml peptide): 25 pg/mL
- Chemokine induction MCP-1 ([11]; 100 μg/ml peptide): 210 pg/mL
- Chemokine induction MCP-3 ([12]; 20 μg/ml peptide): 1 pg/mL
- Chemokine induction MCP-3 ([12]; 100 μg/ml peptide): 3 pg/mL
- Chemokine induction Gro-α ([13]; 20 μg/ml peptide): 55 pg/mL
- Chemokine induction Gro-α ([13]; 100 μg/ml peptide): 60 pg/mL
- MIC [14]: 241 µM (≈ 272 µg/mL)
- MIC [15]: >241 µM
- MIC [16]: 60 µM (≈ 67.7 µg/mL)

Molecule: HH1010: peptide derived from indolicidin; sequence not in the text shown (ILRWKWRWWRWRR-NH2)
- ability to inhibit TNFα responses compared with indolicidin [7]: slightly better or equivalent than indolicidin

Molecule: HH1011: peptide derived from indolicidin; sequence not in the text shown (RWRWWRWRR-NH2)
- ability to inhibit TNFα responses compared with indolicidin [7]: slightly better or equivalent than indolicidin

Molecule: LL-37 [reference compound]
- suppression of LPS-induced TNFα ([7]; P. aeruginosa LPS 10 ng/ml (FIG. 12)): strongly suppressed

— patent US8343475B2, “Small cationic antimicrobial peptides” (priority 2006, dated 2013)
